From DBAASP
≈ marks a conversion by molar mass, not a printed value.

Tests used:
Assay in all cases: ≥ marks a high value that may be exact or a test limit, other limits are often not marked, values filed in µg/mL are converted to µM
[1] = test system: Escherichia coli
[2] = test system: Escherichia coli ATCC 25922
[3] = test system: Staphylococcus aureus
[4] = test system: Staphylococcus aureus ATCC 25923
[5] = test system: Pseudomonas aeruginosa ATCC 27853
[6] = test system: Staphylococcus epidermidis ATCC 12228

Row | MIC [2] | MIC [4] | MIC [5] | Compound | further results
1 | 16 µM (≈ 43.5 µg/mL) | – | – | CC[C@H](C)[C@H](NC(=O)CN)C(=O)N[C@@H](CCCCN)C(=O)N[C@@H](CCCCN)C(=O)N[C@@H](Cc1ccccc1)C(=O)N[C@@H](CC(C)C)C(=O)N[C@@H](Cc1cnc[nH]1)C(=O)N[C@H](C(=O)N[C@H](C(=O)N[C@@H](Cc1c[nH]c2ccccc12)C(=O)N[C@@H](CCCCN)C(=O)N[C@@H](Cc1ccccc1)C(=O)N[C@H](C(=O)N[C@@H](CCCCN)C(=O)N[C@@H](C)C(=O)N[C@@H](Cc1ccccc1)C(=O)N[C@H](C(=O)NCC(=O)N[C@@H](CCC(=O)O)C(=O)N[C@H](C(=O)N[C@@H](CCSC)C(=O)N[C@@H](CC(N)=O)C(=O)N[C@@H](CO)C(=O)O)[C@@H](C)CC)C(C)C)[C@@H](C)CC)[C@@H](C)CC)[C@@H](C)CC [GIKKFLHIIWKFIKAFVGEIMNS] | –
2 | 4.68 µM (≈ 5 µg/mL) | 9.35 µM (≈ 9.99 µg/mL) | – | CC[C@H](C)[C@H](NC(=O)[C@H](C)NC(=O)[C@H](CCCCN)NC(=O)[C@H](CC(C)C)NC(=O)[C@H](CC(C)C)NC(=O)CN)C(=O)N[C@@H](CCCCN)C(=O)N[C@H](C(=O)N[C@@H](CC(C)C)C(=O)N[C@@H](CC(C)C)C(N)=O)[C@@H](C)O [GLLKAIKTLL] | –
3 | 6.66 µM (≈ 7.99 µg/mL) | 6.66 µM (≈ 7.99 µg/mL) | – | CC[C@H](C)[C@H](NC(=O)[C@H](CCCN=C(N)N)NC(=O)[C@H](CCCCN)NC(=O)[C@H](CC(C)C)NC(=O)[C@H](CC(C)C)NC(=O)CN)C(=O)N[C@@H](CCCCN)C(=O)N[C@@H](Cc1ccccc1)C(=O)N[C@@H](CC(C)C)C(=O)N[C@@H](CC(C)C)C(N)=O [GLLKRIKFLL] | –
4 | 44 µM (≈ 49 µg/mL) | > 27.9 µM | – | CC[C@H](C)[C@H](NC(=O)[C@H](CCCN=C(N)N)NC(=O)[C@H](CCCCN)NC(=O)[C@H](CC(C)C)NC(=O)[C@H](CC(C)C)NC(=O)CN)C(=O)N[C@@H](CCCCN)C(=O)N[C@H](C(=O)N[C@@H](C)C(=O)N[C@@H](CC(C)C)C(N)=O)[C@@H](C)O [GLLKRIKTAL] | –
5 | 30 µM (≈ 45.9 µg/mL) | 60 µM (≈ 91.7 µg/mL) | 40 µM (≈ 61.2 µg/mL) | CC(C)C[C@H](NC(=O)[C@H](CO)NC(=O)[C@@H](N)CCCCN)C(=O)N[C@@H](CCCN=C(N)N)C(=O)N[C@@H](CCCN=C(N)N)C(=O)N[C@H](C(=O)N[C@@H](Cc1c[nH]c2ccccc12)C(=O)N[C@@H](CCCN=C(N)N)C(=O)N[C@@H](CO)C(=O)N[C@@H](Cc1c[nH]c2ccccc12)C(=O)N[C@@H](CCCN=C(N)N)C(N)=O)C(C)C [KSLRRVWRSWR] | –
6 | > 100 µM | – | > 100 µM | CSCC[C@H](NC(=O)[C@H](CCCCN)NC(=O)[C@H](CCCCN)NC(=O)[C@H](CCCCN)NC(=O)[C@H](CCCN=C(N)N)NC(=O)[C@H](CCCN=C(N)N)NC(=O)[C@H](Cc1ccc(O)cc1)NC(=O)[C@@H](N)CCCN=C(N)N)C(=O)N[C@@H](CCCCN)C(=O)N[C@@H](CCCCN)C(=O)N[C@@H](C)C(N)=O [RYRRKKKMKKA] | –
7 | 22.6 µM (≈ 41.5 µg/mL) | – | – | CC(C)C[C@H](NC(=O)[C@H](Cc1ccccc1)NC(=O)[C@@H]1CCCN1C(=O)[C@H](Cc1ccc(O)cc1)NC(=O)[C@H](Cc1ccc(O)cc1)NC(=O)[C@H](Cc1ccc(O)cc1)NC(=O)[C@@H]1CCCN1C(=O)[C@H](Cc1ccccc1)NC(=O)[C@H](CCCN=C(N)N)NC(=O)[C@H](CCCN=C(N)N)NC(=O)[C@@H](N)C(C)C)C(=O)N[C@@H](CCCN=C(N)N)C(=O)N[C@@H](CCCN=C(N)N)C(N)=O [VRRFPYYYPFLRR] | MIC [3]: 12.2 µM (≈ 22.3 µg/mL); MIC [1]: 27.3 µM (≈ 50 µg/mL)

The remaining lines, values behind:

Row | Compound | MIC [2] | MIC [4] | MIC [5] | further results
8 | CC[C@H](C)[C@H](NC(=O)[C@H](CCCCN)NC(=O)[C@@H]1CCCN1C(=O)[C@@H](NC(=O)[C@H](CC(C)C)NC(=O)[C@H](C)NC(=O)[C@H](Cc1ccccc1)NC(=O)[C@H](Cc1ccccc1)NC(=O)CN)[C@@H](C)CC)C(=O)N[C@H](C(=O)N[C@@H](CO)C(=O)N[C@@H](CO)C(=O)N1CCC[C@H]1C(=O)N[C@@H](CC(C)C)C(=O)N[C@@H](Cc1ccccc1)C(=O)N[C@@H](CCCCN)C(=O)N[C@H](C(=O)N[C@@H](CC(C)C)C(N)=O)[C@@H](C)O)[C@@H](C)CC [GFFALIPKIISSPLFKTL] | – | – | – | MIC [1]: 17.1 µM (≈ 34 µg/mL)
9 | CC[C@H](C)[C@H](NC(=O)CN)C(=O)N[C@@H](CC(C)C)C(=O)N[C@@H](CO)C(=O)N[C@@H](CO)C(=O)N[C@@H](Cc1ccccc1)C(=O)N[C@@H](CCCCN)C(=O)NCC(=O)N[C@H](C(=O)N[C@@H](C)C(=O)N[C@@H](CCCCN)C(=O)NCC(=O)N[C@H](C(=O)N[C@@H](C)C(=O)N[C@@H](CCCCN)C(=O)N[C@@H](CC(=O)O)C(=O)N[C@@H](CC(C)C)C(=O)N[C@@H](C)C(=O)NCC(=O)N[C@@H](CCCCN)C(=O)N[C@@H](CC(C)C)C(=O)N[C@@H](CC(C)C)C(=O)N[C@@H](CCC(=O)O)C(=O)N[C@H](C(=O)N[C@@H](CC(C)C)C(=O)N[C@@H](CCCCN)C(N)=O)[C@@H](C)O)C(C)C)C(C)C [GILSSFKGVAKGVAKDLAGKLLETLK] | 6.3 µM (≈ 16.7 µg/mL) | – | – | –
10 | CC[C@H](C)[C@H](NC(=O)[C@H](CCCCN)NC(=O)[C@H](CC(C)C)NC(=O)CNC(=O)[C@H](C)NC(=O)[C@H](CCCCN)NC(=O)[C@H](CC(C)C)NC(=O)[C@H](C)NC(=O)[C@H](CCCCN)NC(=O)CNC(=O)[C@H](CC(C)C)NC(=O)[C@H](Cc1ccccc1)NC(=O)[C@H](CO)NC(=O)[C@H](C)NC(=O)[C@H](CC(C)C)NC(=O)CN)C(=O)NCC(=O)N[C@@H](CO)C(=O)N[C@@H](Cc1cnc[nH]1)C(=O)N[C@@H](CC(C)C)C(=O)N[C@@H](CC(C)C)C(=O)NCC(=O)NCC(=O)N[C@@H](C)C(=O)N1CCC[C@H]1C(=O)N[C@@H](CCC(N)=O)C(=O)N[C@@H](CCC(N)=O)C(=O)O [GLASFLGKALKAGLKIGSHLLGGAPQQ] | – | – | – | MIC [3]: 6 µM (≈ 15.8 µg/mL); MIC [1]: 25 µM (≈ 65.8 µg/mL)
11 | CC[C@H](C)[C@H](NC(=O)[C@H](Cc1ccccc1)NC(=O)[C@H](CCCCN)NC(=O)[C@H](CC(C)C)NC(=O)[C@H](CC(C)C)NC(=O)CN)C(=O)N[C@@H](CCCCN)C(=O)N[C@H](C(=O)N[C@@H](CC(C)C)C(=O)N[C@@H](CC(C)C)C(N)=O)[C@@H](C)O [GLLKFIKTLL] | 1.75 µM (≈ 2 µg/mL) | 1.75 µM (≈ 2 µg/mL) | – | –
12 | CC[C@H](C)[C@H](NC(=O)[C@@H](NC(=O)[C@H](Cc1ccccc1)NC(=O)[C@H](CCCCN)NC(=O)[C@H](C)NC(=O)[C@H](CC(C)C)NC(=O)[C@H](CCCCN)NC(=O)CNC(=O)[C@H](CC(C)C)NC(=O)[C@@H](NC(=O)[C@@H](NC(=O)CNC(=O)[C@H](C)NC(=O)[C@H](C)NC(=O)[C@@H](NC(=O)[C@H](C)NC(=O)[C@H](CCSC)NC(=O)CN)[C@@H](C)O)[C@@H](C)O)[C@@H](C)O)C(C)C)C(=O)NCC(=O)N[C@@H](C)C(=O)N[C@H](C(N)=O)C(C)C [GMATAAGTTLGKLAKFVIGAV] | – | – | – | MIC [3]: > 80 µM; MIC [1]: > 80 µM
13 | CC[C@H](C)[C@H](NC(=O)[C@H](CC(=O)O)NC(=O)[C@@H](NC(=O)[C@@H](NC(=O)CN)C(C)C)C(C)C)C(=O)N[C@@H](CC(C)C)C(=O)N[C@@H](CCCCN)C(=O)NCC(=O)N[C@@H](C)C(=O)N[C@@H](C)C(=O)N[C@@H](CCCCN)C(=O)N[C@@H](CC(=O)O)C(=O)N[C@@H](CC(C)C)C(=O)N[C@@H](C)C(=O)NCC(=O)N[C@@H](Cc1cnc[nH]1)C(=O)N[C@@H](CC(C)C)C(=O)N[C@@H](C)C(=O)N[C@@H](CO)C(=O)N[C@@H](CCCCN)C(=O)N[C@H](C(=O)O)C(C)C [GVVDILKGAAKDLAGHLASKV] | 60.6 µM (≈ 125 µg/mL) | – | – | –
14 | CC[C@H](C)[C@H](NC(=O)[C@H](Cc1ccc(O)cc1)NC(=O)[C@H](CCC(N)=O)NC(=O)[C@H](CC(C)C)NC(=O)[C@H](C)NC(=O)[C@H](CCCCN)NC(=O)[C@H](CCCCN)NC(=O)[C@H](CCSC)NC(=O)[C@H](CCCCN)NC(=O)[C@@H](N)CCCCN)C(=O)N[C@@H](CCCCN)C(=O)N[C@@H](CC(C)C)C(=O)N[C@@H](CC(C)C)C(=O)N[C@@H](CCCCN)C(=O)N[C@@H](CCC(=O)O)C(N)=O [KKMKKALQYIKLLKE] | > 100 µM | – | > 100 µM | –
15 | CC[C@H](C)[C@H](NC(=O)CNC(=O)[C@H](CO)NC(=O)[C@H](CCCN=C(N)N)NC(=O)[C@@H](NC(=O)CNC(=O)[C@H](Cc1c[nH]c2ccccc12)NC(=O)[C@H](CC(C)C)NC(=O)[C@H](CC(=O)O)NC(=O)[C@@H](NC(=O)[C@H](CCCCN)NC(=O)[C@H](CC(C)C)NC(=O)[C@@H](N)CCC(N)=O)C(C)C)[C@@H](C)O)C(N)=O [QLKVDLWGTRSGI] | > 100 µM | > 100 µM | > 100 µM | –
16 | NCCCC[C@H](NC(=O)[C@H](CCCCN)NC(=O)[C@H](CCCCN)NC(=O)[C@H](CCCN=C(N)N)NC(=O)[C@H](CCCN=C(N)N)NC(=O)[C@H](Cc1ccc(O)cc1)NC(=O)[C@@H](N)CCCN=C(N)N)C(N)=O [RYRRKKK] | > 100 µM | – | > 100 µM | –
17 | CC(C)C[C@H](NC(=O)[C@H](CCCCN)NC(=O)CNC(=O)[C@@H](N)CO)C(=O)N[C@@H](CS)C(=O)N[C@@H](CS)C(=O)N[C@@H](CCCN=C(N)N)C(=O)N[C@@H](CCCN=C(N)N)C(=O)N[C@@H](CCCCN)C(=O)N[C@@H](CCCCN)C(N)=O [SGKLCCRRKK] | – | > 100 µM | > 100 µM | –
18 | CC(C)C[C@H](NC(=O)[C@H](Cc1ccccc1)NC(=O)[C@H](C)NC(=O)[C@H](Cc1c[nH]c2ccccc12)NC(=O)[C@H](Cc1c[nH]c2ccccc12)NC(=O)[C@H](Cc1c[nH]c2ccccc12)NC(=O)[C@H](C)NC(=O)[C@H](Cc1ccccc1)NC(=O)[C@H](CCCCN)NC(=O)[C@H](CCCCN)NC(=O)[C@@H](N)C(C)C)C(=O)N[C@@H](CCCCN)C(=O)N[C@@H](CCCCN)C(N)=O [VKKFAWWWAFLKK] | 2 µM (≈ 3.47 µg/mL) | – | – | –
19 | CC[C@H](C)[C@H](NC(=O)CNC(=O)[C@H](CC(C)C)NC(=O)[C@@H](NC(=O)[C@@H](N)Cc1ccc(O)cc1)[C@@H](C)O)C(=O)N[C@@H](CCCCN)C(=O)N[C@H](C(=O)N[C@@H](CC(C)C)C(=O)N[C@@H](Cc1c[nH]c2ccccc12)C(=O)N[C@@H](CO)C(=O)N[C@@H](C)C(=O)N[C@@H](Cc1ccc(O)cc1)C(=O)N[C@@H](CCCCN)C(=O)N[C@@H](Cc1cnc[nH]1)C(=O)O)[C@@H](C)CC [YTLGIKILWSAYKH] | – | – | – | MIC [6]: 50 µM (≈ 84.7 µg/mL)
